Two compounds from patent US20090107495A1, “DEVICE FOR INHALATION OF MEDICINE” (NATIONAL INSTITUTE FOR MATERIALS SCIENCE, priority 2005, published 2009) can be followed below.

Common to all, as to type: physicochemical
The nature of one data set: Solubility in ethanol.
A short description of data set [1]: Particle size of creatine adhered on PVP nano fiber, by scanning electron microscope. As to conditions: SEM, FIG. 1. From the text:
A commercially available electrospinning apparatus (HSP-30K-2 manufactured by Nippon Stabilizer Industry Co., Ltd.) was used, voltage (direct current of 15 kV) was applied between (the distance being 20 cm) a nozzle and an aluminum foil (manufactured by Mitsubishi Aluminum Company, Ltd.) on which a cotton mat (manufactured by Asahi Kasei Corporation) is placed attached to a collector of the apparatus and a 10 wt % ethanolic solution of polyvinylpyrrolidone (PVP) was sprayed at ambient temperature from the nozzle onto the cotton mat to form a matrix comprising a nano fiber of PVP on the surface of the cotton mat. A fiber diameter of the nano fiber of PVP constituting the matrix was measured by using a scanning electron microscope (SEM JSM-5400 manufactured by JOEL Ltd.) and found to be from 300 to 700 nm. The cotton mat where a matrix comprising a nano fiber of PVP was formed on the surface was attached onto a filter of a commercially available spray-drying apparatus (Buchi Mini Spray Drier B-290 manufactured by Nihon BUCHI K.K.) and a 1 wt % aqueous solution of creatine was spray-dried onto the matrix (outlet temperature of the nozzle: 180° C.; aspirator speed: 35%; pump speed: 5%) to give a cotton mat where a matrix comprising a nano fiber of PVP in which creatine particles were adhered on the surface was formed on the surface. As will be apparent from FIG. 1, the particle size of creatine adhered on the surface of the nano fiber of PVP was about 2 μm at the largest and many of the particles were in a size of from 100 nm to smaller than 1 μm.

A short description of data set [2]: Exposure of the cotton mat to air stream similar to human inspiration, SEM picture after exposure. As to the method: The cotton mat where the matrix comprising the nano fiber of PVP in which creatine particles were adhered on the surface was formed on the surface was exposed for 1 minute in air stream having the similar degree as human inspiration (velocity is 5 L/minute). A picture of the cotton mat after exposure taken under a scanning electron microscope (the same one as mentioned already) is shown in FIG. 2.

Setting [3] is: spray-dried onto PVP nano fiber matrix on cotton mat.

Some results are limits rather than exact numbers.

Turning to `O=c1c2ccccc2[se]n1-c1ccccc1` [Ebselen, 2-phenyl-1,2-benzoisoselenazol-3-(2H)-one], the solubility in ethanol entry in “Solubility in ethanol” was “hardly soluble”.

In the case of `CN(CC(=O)O)C(=N)N` [creatine], the “particle size of creatine adhered on the surface of the nano fiber of PVP, at the largest” value in data set [1] (spray-dried from 1 wt % aqueous solution onto PVP nano fiber matrix on cotton mat) is recorded as “about 2 μm”. For the same compound, in data set [1] (setting [3]), the “particle size, many of the particles, lower limit” value is on record as no less than 100 nm and the “particle size, many of the particles, upper limit” value is recorded as “smaller than 1 μm”. Besides, the “stability of nano- to micron-size particles in air” value in data set [2] (adhered on PVP nano fiber matrix, no dispersing solvent) is on record as “stably retained even in air”. Moreover, the “detachment of particles adhered on the nano fiber of PVP” value in data set [2] (air stream 5 L/minute, 1 minute, SEM, FIG. 2) is listed as “detached by air stream”.
